Source: ChEMBL document CHEMBL1201862, “PubChem BioAssay data set” (2004)
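Five concentrations, 48 hours, 96-well plates. GI50 marks 50% less growth.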 Calls of active or inactive are those of the source. Cut-off read from the data, not from the text of the source: active = GI50 up to about 1.1 µM and inactive = higher.

Assays:
Assay in all cases: growth of human tumour cells (NCI), 48 h
DU-145 = test system: DU-145
SK-MEL-5 = test system: SK-MEL-5
HCT-15 = test system: HCT-15
MCF7 = test system: MCF7
HCC 2998 = test system: HCC 2998
A498 = test system: A498
COLO 205 = test system: COLO 205
SR = test system: SR
U-251 = test system: U-251
MDA-N = test system: MDA-N
UACC-257 = test system: UACC-257
MDA-MB-231 = test system: MDA-MB-231
SF-295 = test system: SF-295
HCT-116 = test system: HCT-116
NCI/ADR-RES = test system: NCI/ADR-RES
SF-268 = test system: SF-268
LOX IMVI = test system: LOX IMVI
RXF 393 = test system: RXF 393
CCRF-CEM = test system: CCRF-CEM
SNB-19 = test system: SNB-19
OVCAR-4 = test system: OVCAR-4
K562 = test system: K562
SK-MEL-2 = test system: SK-MEL-2
EKVX = test system: EKVX
TK-10 = test system: TK-10
SNB-75 = test system: SNB-75
NCI-H23 = test system: NCI-H23
786-0 = test system: 786-0
MOLT-4 = test system: MOLT-4
PC-3 = test system: PC-3
RPMI-8226 = test system: RPMI-8226
NCI-H522 = test system: NCI-H522
SF-539 = test system: SF-539
SK-MEL-28 = test system: SK-MEL-28
A549 = test system: A549
OVCAR-3 = test system: OVCAR-3
HT-29 = test system: HT-29
HL-60 = test system: HL-60
HOP-92 = test system: HOP-92
UO-31 = test system: UO-31
OVCAR-8 = test system: OVCAR-8
T47D = test system: T47D
M14 = test system: M14
MDA-MB-435 = test system: MDA-MB-435
Hs-578T = test system: Hs-578T
NCI-H460 = test system: NCI-H460
Malme-3M = test system: Malme-3M
CAKI-1 = test system: CAKI-1
SK-OV-3 = test system: SK-OV-3
UACC-62 = test system: UACC-62
KM12 = test system: KM12
NCI-H226 = test system: NCI-H226
IGROV-1 = test system: IGROV-1
SN12C = test system: SN12C
ACHN = test system: ACHN
HOP-62 = test system: HOP-62
SW-620 = test system: SW-620
OVCAR-5 = test system: OVCAR-5

Measured: GI50

OC(c1cc(C(O)(C(F)(F)F)C(F)(F)F)ncn1)(C(F)(F)F)C(F)(F)F
> 10 µM: HCT-15
inactive: DU-145 > 10 µM | SK-MEL-5 > 10 µM | MCF7 > 10 µM | HCC 2998 > 10 µM | A498 > 10 µM | COLO 205 > 10 µM | SR > 10 µM | U-251 > 10 µM | MDA-N > 10 µM | UACC-257 > 10 µM | MDA-MB-231 > 10 µM | SF-295 > 10 µM | HCT-116 > 10 µM | NCI/ADR-RES > 10 µM | SF-268 > 10 µM | LOX IMVI > 10 µM | RXF 393 > 10 µM | CCRF-CEM > 10 µM | SNB-19 > 10 µM | OVCAR-4 > 10 µM | K562 > 10 µM | SK-MEL-2 > 10 µM | EKVX > 10 µM | TK-10 > 10 µM | SNB-75 > 10 µM | NCI-H23 > 10 µM | 786-0 > 10 µM | MOLT-4 > 10 µM | PC-3 > 10 µM | RPMI-8226 > 10 µM | NCI-H522 > 10 µM | SF-539 > 10 µM | SK-MEL-28 > 10 µM | A549 > 10 µM | OVCAR-3 > 10 µM | HT-29 > 10 µM | HL-60 > 10 µM | HOP-92 > 10 µM | UO-31 > 10 µM | OVCAR-8 > 10 µM | T47D > 10 µM | M14 > 10 µM | MDA-MB-435 > 10 µM | Hs-578T > 10 µM | NCI-H460 > 10 µM | Malme-3M > 10 µM | CAKI-1 > 10 µM | SK-OV-3 > 10 µM | UACC-62 > 10 µM | KM12 > 10 µM | NCI-H226 > 10 µM | IGROV-1 > 10 µM | SN12C > 10 µM | ACHN > 10 µM | HOP-62 > 10 µM | SW-620 > 10 µM

Cc1cc(OCc2nn(CN3CCN(C)CC3)c(=S)n2/N=C/c2ccc(-c3ccc(Cl)cc3Cl)o2)ccc1Cl
28.5 µM: HCT-15
inactive: DU-145 > 100 µM | SK-MEL-5 44.5 µM | MCF7 39.4 µM | HCC 2998 16.1 µM | A498 36.3 µM | U-251 > 100 µM | MDA-N 39.3 µM | UACC-257 53.5 µM | MDA-MB-231 97.5 µM | SF-295 84.1 µM | HCT-116 > 100 µM | NCI/ADR-RES 38 µM | SF-268 33.1 µM | LOX IMVI 80.7 µM | RXF 393 17.2 µM | CCRF-CEM 35.3 µM | OVCAR-4 27 µM | K562 34.6 µM | SK-MEL-2 > 100 µM | EKVX > 100 µM | TK-10 75.2 µM | NCI-H23 39.6 µM | 786-0 90.2 µM | MOLT-4 67.8 µM | PC-3 85.3 µM | RPMI-8226 17.1 µM | NCI-H522 24.5 µM | SF-539 > 100 µM | SK-MEL-28 33.1 µM | OVCAR-3 80 µM | HT-29 28.2 µM | HL-60 22.3 µM | HOP-92 21 µM | UO-31 57.1 µM | OVCAR-8 44 µM | T47D 38 µM | M14 33.7 µM | MDA-MB-435 29.5 µM | Hs-578T 39.6 µM | NCI-H460 67.8 µM | CAKI-1 47.9 µM | SK-OV-3 > 100 µM | KM12 20.3 µM | NCI-H226 40.4 µM | IGROV-1 > 100 µM | ACHN > 100 µM | HOP-62 39.3 µM | OVCAR-5 > 100 µM | SW-620 15.7 µM

CC(C)(Br)C(=O)/C=C/c1ccccc1
inactive: DU-145 5.71 µM | SK-MEL-5 11.6 µM | MCF7 3.56 µM | A498 18.7 µM | COLO 205 8.24 µM | SR 1.98 µM | U-251 6.95 µM | MDA-N 3.5 µM | UACC-257 14.1 µM | MDA-MB-231 8.79 µM | SF-295 16.8 µM | NCI/ADR-RES 17.6 µM | SF-268 10.6 µM | LOX IMVI 1.32 µM | SNB-19 22 µM | OVCAR-4 2.3 µM | K562 1.55 µM | SK-MEL-2 1.83 µM | EKVX 7.62 µM | TK-10 10.6 µM | SNB-75 16.1 µM | NCI-H23 1.94 µM | MOLT-4 1.41 µM | PC-3 7.69 µM | SF-539 8.13 µM | SK-MEL-28 14.9 µM | A549 14.8 µM | OVCAR-3 8.17 µM | HT-29 4.23 µM | HL-60 3.91 µM | HOP-92 4.35 µM | UO-31 1.84 µM | OVCAR-8 2.13 µM | T47D 2.47 µM | M14 1.56 µM | MDA-MB-435 5.46 µM | Hs-578T 11.5 µM | NCI-H460 16.3 µM | Malme-3M 2.62 µM | CAKI-1 6.12 µM | SK-OV-3 25.6 µM | UACC-62 5.73 µM | KM12 13.1 µM | NCI-H226 5 µM | SN12C 6.21 µM | ACHN 2.55 µM | HOP-62 4.58 µM | OVCAR-5 6.56 µM | SW-620 2.39 µM
active: HCT-116 0.625 µM | CCRF-CEM 0.22 µM | 786-0 0.485 µM | RPMI-8226 0.925 µM | NCI-H522 0.136 µM | IGROV-1 0.581 µM
1.97 µM: HCT-15
